Reference: ChEMBL document CHEMBL5303573, “Mapping human microbiome drug metabolism by gut bacteria and their genes” (Nature, 2019)

Key:
[1] = The drug is tested on Collinsella aerofaciens strain: ATCC25986 for biotransformation. The drug concentrations were measured before and after a 12-h incubation by liquid-chromatography-coupled mass spectrometry (LC–MS); details: 2 µM
[2] = The drug is tested on Alistipes indistinctus strain: DSM22520 for biotransformation. The drug concentrations were measured before and after a 12-h incubation by liquid-chromatography-coupled mass spectrometry (LC–MS); details: 2 µM
[3] = The drug is tested on Bacteroides caccae strain: ATCC43185 for biotransformation. The drug concentrations were measured before and after a 12-h incubation by liquid-chromatography-coupled mass spectrometry (LC–MS); details: 2 µM
[4] = The drug is tested on Bacteroides finegoldii strain: DSM17565 for biotransformation. The drug concentrations were measured before and after a 12-h incubation by liquid-chromatography-coupled mass spectrometry (LC–MS); details: 2 µM
[5] = The drug is tested on Bacteroides uniformis strain: ATCC8492 for biotransformation. The drug concentrations were measured before and after a 12-h incubation by liquid-chromatography-coupled mass spectrometry (LC–MS); details: 2 µM
[6] = The drug is tested on Odoribacter splanchnicus strain: fecal isolate for biotransformation. The drug concentrations were measured before and after a 12-h incubation by liquid-chromatography-coupled mass spectrometry (LC–MS); details: 2 µM
[7] = The drug is tested on Clostridium asparagiforme strain: DSM15981 for biotransformation. The drug concentrations were measured before and after a 12-h incubation by liquid-chromatography-coupled mass spectrometry (LC–MS); type: ADME; set-up: dose 2 uM, timepoint 0 vs 12 hours; details: enterocloster asparagiformis, 2 µM
[8] = The drug is tested on Clostridium sp. strain: fecal isolate for biotransformation. The drug concentrations were measured before and after a 12-h incubation by liquid-chromatography-coupled mass spectrometry (LC–MS); details: 2 µM
[9] = The drug is tested on Clostridium scindens strain: ATCC35704 for biotransformation. The drug concentrations were measured before and after a 12-h incubation by liquid-chromatography-coupled mass spectrometry (LC–MS); details: 2 µM
[10] = The drug is tested on Clostridium symbiosum strain: ATCC14940 for biotransformation. The drug concentrations were measured before and after a 12-h incubation by liquid-chromatography-coupled mass spectrometry (LC–MS); details: 2 µM
[11] = The drug is tested on Enterococcus faecalis strain: V583 for biotransformation. The drug concentrations were measured before and after a 12-h incubation by liquid-chromatography-coupled mass spectrometry (LC–MS); details: 2 µM
[12] = The drug is tested on Eubacterium rectale strain: ATCC33656 for biotransformation. The drug concentrations were measured before and after a 12-h incubation by liquid-chromatography-coupled mass spectrometry (LC–MS); details: agathobacter rectalis, 2 µM
[13] = The drug is tested on Escherichia coli strain: BW25113 for biotransformation. The drug concentrations were measured before and after a 12-h incubation by liquid-chromatography-coupled mass spectrometry (LC–MS); details: 2 µM
[14] = bacteroides eggerthii, 12 h, 2 µM
Description: The drug is tested on Bacteroides eggerthii strain: DSM20697 for biotransformation. The drug concentrations were measured before and after a 12-h incubation by liquid-chromatography-coupled mass spectrometry (LC–MS)

[15] = bacteroides thetaiotaomicron, 12 h, 2 µM
Description: The drug is tested on Bacteroides thetaiotaomicron strain: 7330 for biotransformation. The drug concentrations were measured before and after a 12-h incubation by liquid-chromatography-coupled mass spectrometry (LC–MS)

[16] = parabacteroides distasonis, 12 h, 2 µM
Description: The drug is tested on Parabacteroides distasonis strain: ATCC8503 for biotransformation. The drug concentrations were measured before and after a 12-h incubation by liquid-chromatography-coupled mass spectrometry (LC–MS)

[17] = parabacteroides johnsonii, 12 h, 2 µM
Description: The drug is tested on Parabacteroides johnsonii strain: DSM18315 for biotransformation. The drug concentrations were measured before and after a 12-h incubation by liquid-chromatography-coupled mass spectrometry (LC–MS)

[18] = segatella copri, 12 h, 2 µM
Description: The drug is tested on Prevotella copri strain: DSM18205 for biotransformation. The drug concentrations were measured before and after a 12-h incubation by liquid-chromatography-coupled mass spectrometry (LC–MS)

[19] = The drug is tested on Bifidobacterium ruminantium strain: fecal isolate for biotransformation. The drug concentrations were measured before and after a 12-h incubation by liquid-chromatography-coupled mass spectrometry (LC–MS); details: 2 µM

| Compound | Bacterial Biotransformation [1] | Bacterial Biotransformation [2] | Bacterial Biotransformation [3] | Bacterial Biotransformation [4] | Bacterial Biotransformation [5] | Bacterial Biotransformation [6] | Bacterial Biotransformation [7] | Bacterial Biotransformation [8] | Bacterial Biotransformation [9] | Bacterial Biotransformation [10] | Bacterial Biotransformation [11] | Bacterial Biotransformation [12] | Bacterial Biotransformation [13] | Bacterial Biotransformation [14] | Bacterial Biotransformation [15] | Bacterial Biotransformation [16] | Bacterial Biotransformation [17] | Bacterial Biotransformation [18] | Bacterial Biotransformation [19] |
| --- | --- | --- | --- | --- | --- | --- | --- | --- | --- | --- | --- | --- | --- | --- | --- | --- | --- | --- | --- |
| CC1OC(OC2C(O)CC(OC3C(O)CC(OC4CCC5(C)C(CCC6C5CCC5(C)C(C7=CC(=O)OC7)CCC65O)C4)OC3C)OC2C)CC(O)C1O (centres undefined) | Compound NOT metabolized | Compound NOT metabolized | Compound NOT metabolized | Compound NOT metabolized | Compound metabolized | Compound metabolized | Compound NOT metabolized | Compound metabolized | Compound metabolized | Compound NOT metabolized | Compound NOT metabolized | Compound NOT metabolized | Compound NOT metabolized | Compound metabolized | Compound metabolized | Compound metabolized | Compound metabolized | Compound metabolized |  |
| Br.COc1ccc2c(c1)[C@]13CCCC[C@@H]1[C@H](C2)N(C)CC3.O [DEXTROMETHORPHAN HYDROBROMIDE] | Compound NOT metabolized | Compound NOT metabolized | Compound NOT metabolized | Compound NOT metabolized | Compound NOT metabolized |  | Compound NOT metabolized | Compound NOT metabolized | Compound NOT metabolized | Compound NOT metabolized | Compound NOT metabolized | Compound NOT metabolized | Compound NOT metabolized | Compound NOT metabolized | Compound NOT metabolized |  |  |  | Compound NOT metabolized |
| O=C(Nc1ccccc1)OCC(CN1CCCCC1)OC(=O)Nc1ccccc1 (centres undefined) [DIPERODON] | Compound NOT metabolized | Compound NOT metabolized | Compound NOT metabolized | Compound NOT metabolized | Compound NOT metabolized |  | Compound NOT metabolized |  | Compound NOT metabolized | Compound NOT metabolized | Compound NOT metabolized | Compound NOT metabolized | Compound NOT metabolized | Compound NOT metabolized | Compound NOT metabolized |  |  | Compound NOT metabolized | Compound NOT metabolized |
| OCCN(CCO)c1nc(N2CCCCC2)c2nc(N(CCO)CCO)nc(N3CCCCC3)c2n1 [DIPYRIDAMOLE] | Compound NOT metabolized | Compound NOT metabolized | Compound NOT metabolized | Compound NOT metabolized |  |  | Compound NOT metabolized | Compound metabolized | Compound NOT metabolized | Compound NOT metabolized | Compound NOT metabolized | Compound NOT metabolized | Compound NOT metabolized | Compound NOT metabolized | Compound NOT metabolized | Compound NOT metabolized | Compound metabolized | Compound NOT metabolized |  |
| COC(=O)C1=C(C)NC(C)=C(C(=O)OC(C)C)C1c1cccc2nonc12 (centres undefined) [ISRADIPINE] | Compound NOT metabolized | Compound NOT metabolized |  | Compound NOT metabolized | Compound NOT metabolized | Compound NOT metabolized | Compound NOT metabolized | Compound NOT metabolized | Compound NOT metabolized | Compound NOT metabolized | Compound NOT metabolized |  | Compound NOT metabolized | Compound NOT metabolized | Compound NOT metabolized | Compound NOT metabolized | Compound NOT metabolized | Compound NOT metabolized | Compound NOT metabolized |
| CCCN1C[C@H](CSC)C[C@@H]2c3cccc4[nH]cc(c34)C[C@H]21.CS(=O)(=O)O [PERGOLIDE MESYLATE] | Compound NOT metabolized | Compound NOT metabolized | Compound NOT metabolized | Compound NOT metabolized | Compound NOT metabolized |  | Compound NOT metabolized | Compound NOT metabolized | Compound NOT metabolized | Compound NOT metabolized | Compound NOT metabolized | Compound NOT metabolized | Compound NOT metabolized | Compound NOT metabolized | Compound NOT metabolized |  | Compound NOT metabolized | Compound NOT metabolized | Compound NOT metabolized |
| N#Cc1ccc2c(c1)N(CCCN1CCC(O)CC1)c1ccccc1S2 [PERICIAZINE] | Compound NOT metabolized | Compound metabolized | Compound metabolized | Compound metabolized | Compound NOT metabolized |  | Compound NOT metabolized |  | Compound NOT metabolized | Compound NOT metabolized | Compound NOT metabolized | Compound NOT metabolized | Compound NOT metabolized | Compound NOT metabolized | Compound metabolized | Compound metabolized | Compound metabolized | Compound NOT metabolized |  |
